This is an account of results in US20090209620A1, “Direct Reversal Of The Suppressive Function Of CD4+Regulatory T Cells Via Toll-Like Receptor 8 Signaling” (priority 2005, published 2009).

Entries after “also recorded” stand apart in the source; their conditions may differ. In the oligonucleotide strings, read from the 5' end, every base follows the letter of its sugar. An asterisk marks phosphorothioate; unmarked linkages are phosphodiester. Other units and linkages are bracketed, terminal groups are in braces. A string of capitals states the bases alone. d = 2'-deoxy (DNA)

For series [1], the system named is antigen-specific Treg102 and Treg164 cells. The experiment in a line: TLR ligand assays: reversal of Treg suppression of naive CD4+ T cell proliferation. It counts as cell-based, human. As for the experimental part:
Näive CD4 T+cells were purified from PBMCs by using microbeads (Miltenvi Biotec). Näive CD4^+ T cells ([…]) were cultured with regulatory T cells at a ratio of 10:1 in OKT3 (2 ug/ml)-coated, U bottomed 96-well plates containing the following ligands: LPS (100 ng/ml), imiquimod (10 μg/ml), loxoribine (500 μM), poly(I:C) (25 μg/ml), ssRNA40/LyoVec (3 μg/ml), ssRNA33/LyoVec (3 μg/ml), pam3CSK4 (200 ng/ml) and flagellin (10 μg/ml) were purchased from Invivogene (San Diego, Calif.), while CpG-A (3 μg/ml), CpG-B (3 μg/ml) and Poly-G oligonucleotides (3 μg/ml) were synthesized in Integrated DNA Technologies, Inc (Coralville, Iowa). Functional assays were identical to those described above.
If the TLR8-MyD88-IRAK4 signaling pathway is necessary and sufficient for direct reversal of the suppressive function of Treg cells, it should be possible to produce that effect with natural ligands for human TLR8. For FIG. 4A-B, naive CD4^+ T cells were mixed with Treg102, Treg164 or naturally occurring CD4^+ CD25^+ Treg cells in anti-CD3 antibody-coated wells in the presence of different TLR ligands. Data are presented as means±SD and represent results from three independent experiments.

Series [2] concerns naturally occurring CD4+ CD25+ Treg cells. The experiment in a line: Reversal of suppressive function of naturally occurring CD4+CD25+ Treg cells (proliferation assay). The conditions noted are these: sorted from fresh human PBMCs; anti-CD3-coated wells. It counts as cell-based. The text has this:
Establishing Treg cell lines and purifying natural CD4^+ CD25^+ Treg cells CD4^+ Treg clones were established from CD4^+ tumor-infiltrating lymphocytes (TIL102 and TIL164) and maintained in RPMI 1640 medium containing 10% human AB serum and recombinant IL-2 (300 IU/ml) using methods well known in the art (See, e.g., H. Y. Wang et al., Immunity 20, 107-118 (2004)). Treg clones derived from TIL102 or TIL164 cells were pooled and designated Treg102 or Treg164. Naturally occurring CD4^+ CD25^+ Treg cells were obtained by sorting CD4^+ T cell populations from fresh PBMCs after staining with anti-CD4 and anti-CD25 antibodies. To obtain optimal expansion, the OKT3 expansion method was performed using methods well known in the art (See, e.g., H. Y. Wang et al., Immunity 20, 107-118 (2004)). T cell clones were maintained at a low IL-2 concentration (300 IU/ml). […]
The expression of CD4, CD25 and GITR on Treg cells was determined by FACS analysis after staining with specific antibodies (purchased from R&D Systems and BD Biosciences). […] After 3 days in culture, the cells were analyzed by FACS gating on the CFSE-labeled cells. […]
FIG. 2E: Both CD4^+ CD25^+ and CD25^− T cells were sorted after staining of freshly isolated human CD4^+ T cells with anti-CD4 and anti-CD25 antibodies. The purity of the sorted T cells was determined by FACS. […]

Series [3] concerns CD4+ Treg cells (Treg102, Treg164). The experiment in a line: Proliferation assay without DCs: Treg suppression of naive CD4+ T cell proliferation, anti-CD3-coated plates. The conditions noted are these: absence of DCs; anti-CD3-coated plates; oligonucleotides 3 ug/ml in medium. It counts as cell-based, human. The text has this: (§1) Establishing Treg cell lines and purifying natural CD4^+ CD25^+ Treg cells CD4^+ Treg clones were established from CD4^+ tumor-infiltrating lymphocytes (TIL102 and TIL164) and maintained in RPMI 1640 medium containing 10% human AB serum and recombinant IL-2 (300 IU/ml) using methods well known in the art (See, e.g., H. Y. Wang et al., Immunity 20, 107-118 (2004)). Treg clones derived from TIL102 or TIL164 cells were pooled and designated Treg102 or Treg164. Naturally occurring CD4^+ CD25^+ Treg cells were obtained by sorting CD4^+ T cell populations from fresh PBMCs after staining with anti-CD4 and anti-CD25 antibodies. To obtain optimal expansion, the OKT3 expansion method was performed using methods well known in the art (See, e.g., H. Y. Wang et al., Immunity 20, 107-118 (2004)). T cell clones were maintained at a low IL-2 concentration (300 IU/ml). Melanoma cell lines and EBV-transformed B-cell lines used in this study were cultured in RPMI 1640 medium containing 10% FCS. Human embryonic kidney (HEK) 293 and Epstein-Barr virus (EBV)-transformed B cell lines were maintained in RPMI 1640 with 10% fetal calf serum (FCS).
B. Proliferation assay without DCs: 1×10^5 näive CD4 T cells were cultured with regulatory T cells at different ratios (1: 0.2, 1:0.1 and 1:0.05) in anti-CD3 mAb-coated (2 ug/ml) 96-well plates in the presence or absence of the following TLR ligands or cytokines: CpG-A (3 ug/ml), CpG-B (3 ug/ml), LPS (100 ng/ml), TNF.-α (20 ng/ml), IFN-α (100 ng/ml), or IL-6 (100 ng/ml). After 56 h of culture, [3H]thymidine was added at a final concentration of 1 uCi/well, followed by an additional 16 h of culture. The incorporation of [^3H]thymidine was measured with a liquid scintillation counter.
Näive CD4^+ T cell proliferation experiments were performed similar to those in FIG. 1A, but in the absence of DCs. […] The reversal effect of CpG-A (SEQ ID NO: 1) contrasts with the failure of CpG-B (SEQ ID NO: 2), LPS, TNF-α, IL-6 or IFN-α to block the suppressive activity of CD4^+ Treg cells against naive CD4^+ T cells (FIG. 1B).
To further define the CpG-A (SEQ ID NO: 1) sequences responsible for the observed reversal effect, CpG-NG (SEQ ID NO: 5) and Poly-G10 (SEQ ID NO: 6), were tested for their ability to reverse the suppressive function of Treg cells. Naive CD4^+ T cells were mixed with CD4^+ Treg cells in anti-CD3 antibody-coated 96-wells with 200 μl of medium containing CpG-NG (SEQ ID NO: 5), CpG-A (SEQ ID NO: 1) or Poly-G10 (SEQ ID NO: 6). The proliferation assay was conducted as described in FIG. 1. […] For the experiments shown in FIG. 2B, naive CD4^+ T cells were mixed with CD4^+ Treg cells in anti-CD3 antibody-coated 96-wells with 200 μl of medium containing Poly-A10 (SEQ ID NO: 7), Poly-T10 (SEQ ID NO: 9) or Poly-C10 (SEQ ID NO: 8), while the Poly-G10 (SEQ ID NO: 6) oligonucleotides served as a positive control.
A series of oligonucleotides with decreasing numbers of guanosine nucleosides was constructed to determine the minimal number required for the reversal effect. For the experiments in FIG. 2C, CD4^+ T cells were mixed with CD4^+ Treg cells in anti-CD3 antibody-coated 96-wells containing medium with protected phosphorothioate linked guanosine nucleoside containing oligonucleotides of various lengths, while the unprotected five guanosines (SEQ ID NO: 10) served as a control.

The test system is the same in series [4]. The experiment in a line: Proliferation assay with dendritic cells: Treg suppression of naive CD4+ T cell proliferation ([3H]thymidine). It counts as cell-based, human. The conditions noted are these: with DCs; LPS 100 ng/ml, IL-6 100 ng/ml, IFN-α 100 ng/ml.
Text: as §1
A. Proliferation assay with Dendritic Cells (DCs): Näive CD4^+ T cells were purified from PBMCs using microbeads (Miltenvi Biotec). DCs were generated from PBMC-derived monocytes in the presence of IL-4 (500 ng/ml) and GM-CSF (800 ng/ml) for 7 days. 1×105 näive CD4^+ T cells were cultured with regulatory T cells at different ratios (1: 0.2, 1:0.1 and 1:0.05) in 200 ul of medium containing 2×104 of DCs and anti-CD3 antibody (100 ng/ml) plus one of the following TLR ligands or cytokines: CpG-A (3 ug/ml), CpG-B (3 ug/ml), LPS (100 ng/ml), TNF.-α (20 ng/ml), IFN-α (100 ng/ml), or IL-6 (100 ng/ml). After 56 h of culture, [3H]thymidine was added at a final concentration of 1 uCi/well, followed by an additional 16 h. of culture. The incorporation of [^3H]thymidine was measured with a liquid scintillation counter, using methods well known in the art (See, e.g., M. K. Levings et al., J. Exp. Med. 196, 1335-46 (2002)). All experiments were performed in triplicate.
Two CD4^+ Treg cell lines, designated Treg102 and Treg164, were generated with a panel of Treg cell clones derived from TIL102 and TIL164 cells. […] A functional proliferation assay was employed to examine whether CpG (a TLR9 ligand), LPS (a TLR4 ligand) or the cytokines IL-6 or IFN-α could regulate the suppressive activity of antigen specific human CD4^+ Treg cells in the presence of DCs. […]

The subject of series [5] is 586mel human tumor cells. The experiment in a line: Human 586mel tumor model in Rag1-/- mice with adoptive transfer of TIL586 and Treg102 cells. The conditions noted are these: 586mel s.c. day 0; CD8+ TIL586 plus Treg102 cells with oligonucleotide on day 3; n=6 mice per group. It counts as in vivo. As for the experimental part: Human 586mel tumor cells (5×106) in 100 μl of buffered saline were subcutaneously injected into Rag1^−/− mice (lacking T and B cells) or Rag 2 ^−/− γC ^−/− mice (lacking T, B and NK cells) on day 0. Tumor-specific CD8^+ TIL586 cells (2.5×107), which recognize and kill 586mel cells, were injected intravenously on day 3 with or without Treg102 cells (3×106) pretreated with Poly-G10 or Poly-T10. Tumor size was measured with calipers every 2-3 days. Tumor volume was calculated on the basis of two-dimensioned measurements. Tumor growth curves were compared with the Wilcoxon rank-sum test.
The data in FIG. 4A-B confirms that TLR8 serves as a receptor for synthetic guanosine containing oligonucleotides and natural ssRNA40 and ssRNA33 ligands derived from HIV-1 virus, and that its activation in endosomes by synthetic DNA or ssRNA ligands triggers a signaling pathway that can reverse the suppressive function of Treg cells. To study the guanosine containing oligonucleotide induced reversal of Treg cell function in vivo, a human tumor model was established by subcutaneously injecting 586mel human tumor cells into Rag1^−/− (T and B cell deficient) mice. […] Tumor volumes were measured and presented as mean±SD (n=6 mice per group). P value was determined between groups as indicated. […]

Turning to `CC(C)Cn1cnc2c(N)nc3ccccc3c21` [Imiquimod], in series [1] (Treg102 and Treg164, naive T:Treg 10:1, OKT3-coated plates), the “reversal of suppressive function of antigen-specific Treg cells” value is “partial reversal”. Also, in series [2], the “reversal of suppressive function of naturally occurring CD4+CD25+ Treg cells” value is reported as “little or no effect”.
As to IFN-α, the “reversal of Treg cell-mediated suppression of naive CD4+ T cell proliferation” value (from here on “reversal … of naive CD4+ T cell proliferation”) in series [3] is on record as “failure”. Besides, the “restoration of proliferative ability of naive CD4+ T cells in the presence of CD4+ Treg cells” value (“restoration … of CD4+ Treg cells” for short) in series [4] was “did not restore the proliferative ability”.
On to IL-6: cytokine, for which, in series [3], the “reversal … of naive CD4+ T cell proliferation” value was “failure”. The “restoration … of CD4+ Treg cells” value in series [4] was “did not restore the proliferative ability”.
Regarding “Poly-G5: Poly-G oligonucleotide with phosphorothioate linkages (DNA dG*dG*dG*dG*dG)”, the “reversal of suppressive function of naturally occurring CD4+CD25+ Treg cells” value in series [2] is reported as “Reversal of suppressive function; also recorded: entirely reversed; also recorded: could be reversed”.
For the molecule “Poly-T10: control oligonucleotide with protected phosphorothioate backbone (DNA TTTTTTTTTT)”, in series [3], the “reversal … of naive CD4+ T cell proliferation” value is reported as “failed to reverse the suppressive function of Treg cells; also recorded: lacked the ability to reverse the suppressive activity of Treg cells”. Further, the “tumor growth / antitumor immunity” value in series [5] is “grew faster than in mice receiving 586mel cells alone”.
Regarding lipopolysaccharide [LPS], the “reversal … of naive CD4+ T cell proliferation” value in series [3] is recorded as “failure”. Further, the “restoration of proliferation of naive CD4+ T cells in the presence of Treg cells” value in series [1] (Treg102, Treg164 or naturally occurring CD4+CD25+ Treg cells (FIG. 4A-B)) is reported as “failed to restore the proliferation of naive CD4^+ T cells”. In addition, the “restoration … of CD4+ Treg cells” value in series [4] is on record as “did not restore the proliferative ability”.
